Experimental findings from ChEMBL document CHEMBL2448809, “UCSF DeRisi Lab MMV Box Apicoplast Screening” are described below.

The subject of this test is Plasmodium falciparum. Nature of the test: MMV: Compounds (1uM) were screened in a 72hr growth assay monitored by flow cytometry both in the presence and absence of supplemental isopentenyl pyrophosphate (IPP) 200uM. Compounds which fail to show anti-malarial activity when chemically rescued by IPP are therefore specific to the apicoplast. The values are expressed as the ratio of the corresponding activity with and without IPP, respectively. Type of test: functional, W2. A general note: Flow cytometry measures light scatter and fluorescence of single cells or particles in a stream.
`O=C(Nc1ccc(Cl)c(Cl)c1)Nc1ccc(Cl)c(Cl)c1`: the Ratio is 1.022. For `COc1ccc(Nc2nc(N/N=C/c3ccc(O)cc3)nc(Nc3ccc([N+](=O)[O-])cc3)n2)cc1`, the Ratio worked out at 1.812. With `COc1ccc(C2c3ccc4ccccc4c3Oc3ncn(CCCN(C)C)c(=N)c32)cc1` (stereo unspecified) the figure was 1.078.

Consider `N=c1n(CCN2CCCCC2)c2ccccc2n1CC(=O)c1ccc(Cl)c(Cl)c1`, for which the Ratio is recorded as 1.14. With `Nc1nc(Nc2cccc(F)c2)nc2ccccc12` the figure was 1.176; with `COc1ccc(/C=C2/SC(=Nc3ccccc3)NC2=O)cc1`, 1.136; with `COc1ccc(-c2nc(N3CCN(C(=O)C4CCCCC4)CC3)c3c4c(sc3n2)CCCC4)cc1`, 1.015. With `O=C(NC1CCN(Cc2ccccc2)CC1)c1cc2nc(-c3ccc(Cl)s3)cc(C(F)(F)F)n2n1` the figure was 0.6993; with `Cc1sc(NC(=O)c2ccccc2)c(C(c2cccs2)N2CCN(c3ccccc3)CC2)c1C` (stereo unspecified), 0.9412; with `Cc1sc(NC(=O)c2ccco2)c(C(c2cccnc2)N2CCC(Cc3ccccc3)CC2)c1C` (stereo unspecified), 1.123. As to `CCOC(=O)c1c(C)n(-c2ccccc2)c2ccc(OC(=O)c3cc(OC)c(OC)c(OC)c3)cc12`, the Ratio is reported as 0.9.

Turning to `COc1cc(C(=O)Nc2nc3c(cc4c5c(cccc53)CC4)s2)cc(OC)c1OC`, the Ratio is 0.8259.

For the molecule `COc1ccc(CCN2C(=O)c3[nH]nc(-c4cc(Cl)c(C)cc4O)c3C2c2ccccc2F)cc1` (stereo unspecified), the Ratio is listed as 0.7742. As to `N#Cc1nc(Cc2cccc3ccccc23)oc1N1CCN(C(c2ccccc2)c2ccccc2)CC1`, the Ratio is reported as 1.062. With `O=C(NNc1cc(N2CCCC2)nc(N2CCCC2)n1)c1ccccc1` the figure was 0.9508. With `COC(=O)c1ccc(Cl)c2c1C1C=CCC1C(c1cccc3ccccc13)N2` (stereo unspecified) the figure was 1.081. In the case of `O=C(CCc1ccccc1)c1ccccc1OCC(O)CN1CCCCC1` (stereo unspecified) it was 1; in that of `OC1=C2C(=Nc3ccccc3SC2c2ccccc2)c2ccccc21` (stereo unspecified), 1.213; in that of `COc1cc(C(=O)Nc2ccc(-c3nc4ccccc4[nH]3)cc2)cc(OC)c1OC`, 0.6522. Turning to `CCOc1ccc(N2C(N)=NC(N)=NC2(C)C)cc1.Cl`, the Ratio worked out at 0.7815. With `COc1cccc(Nc2nc(N)c3ccccc3n2)c1.Cl` the figure was 0.9815; with `Cc1ccc(C(=O)c2oc3ccc4c(C)cc(=O)oc4c3c2C)cc1`, 1.018. With `COC(=O)c1ccc(C2C3=C(O)CC(c4ccc(F)cc4)CC3=Nc3ccccc3N2C(=O)c2ccccc2)cc1` (stereo unspecified) the figure was 0.9016; with `CCCCCCc1cc2cc(-c3csc(C=Cc4ccccc4)n3)c(=O)oc2cc1O`, 0.86; with `O=C(CCl)NCCOc1ccc(Cl)cc1Cl`, 1.041. In the case of `Oc1ccc(-c2nc(-c3ccc4oc5ccc(-c6[nH]c(-c7ccc(O)cc7)nc6-c6ccccc6)cc5c4c3)c(-c3ccccc3)[nH]2)cc1` it was 0.8182; in that of `CC(Oc1ccc(NC(=O)c2cccs2)cc1)C(=O)c1ccc(Cl)cc1` (stereo unspecified), 1.

For the molecule `CCOc1ccc(CN2CCN(CC(O)COc3ccc(OCC(O)CN4CCN(Cc5ccc(OCC)cc5)CC4)cc3)CC2)cc1` (stereo unspecified), the Ratio was found to be 0.9863.

With `CCCCNc1nc(NC(C)(C)C)nc(NC(C)(C)C)n1`, the Ratio was found to be 1.02.

Regarding `COc1ccc(CNC(=O)c2cc3c(=O)n4ccccc4nc3n(CCc3ccccc3)c2=N)cc1`, the Ratio worked out at 0.8046. With `COc1ccc(CCn2c(=N)c(C(=O)NCc3cccnc3)cc3c(=O)n4cccc(C)c4nc32)cc1`, the Ratio came to 0.875.

For the molecule `CC(=O)c1sc(NC(=O)Nc2ccc(C)cc2C)nc1C`, the Ratio is 0.843. In the case of `COc1ccc(-c2cn3c(C(=O)Nc4ccccc4Cl)c(-c4ccccc4)c4c3n2CCCC4)cc1` it was 1.057.

Take `Cl.Cn1c(=O)n(C)c2cc(CNCCNc3ccnc4cc(Cl)ccc34)ccc21`: the Ratio was 1.09. In the case of `Cn1c(C(=O)c2cccc3ccccc23)nc2ccccc21` it was 0.8689; in that of `CCOc1ccc2nc(C)cc(Nc3ccc(N(C)C)cc3)c2c1.Cl`, 1.135. With `COc1ccc(Nc2cc(C)nc(NCc3ccccc3)n2)cc1` the figure was 0.7294; with `COc1ccc(C=C2SC(Nc3ccc(F)cc3)=NC2=O)c(OC)c1`, 0.9324; with `Oc1ccc2ccccc2c1CNc1nc2ccccc2[nH]1`, 0.578.

Regarding `O=C(Nc1ccc(-c2nc3ccccc3[nH]2)cc1)c1ccc(Cl)c(Cl)c1`, the Ratio was determined as 0.9295. In the case of `O=C1c2ccc3c4c(ccc(c24)C(=O)N1CCCCO)C(=O)N(CCCCO)C3=O` it was 1.047; in that of `O=C(Nc1ccc(-c2nc3cc(NC(=O)c4ccc(Cl)cc4)ccc3[nH]2)cc1)c1ccc(Cl)cc1`, 0.9036; in that of `OCCNc1nc(Nc2ccc(Cl)c(Cl)c2)nc2ccccc12`, 1.062. In the case of `Nc1ccc(-c2nc3cc(Oc4ccc(Oc5ccc6[nH]c(-c7ccc(N)cc7)nc6c5)cc4)ccc3[nH]2)cc1` it was 1.143.

As for `CCOC(=O)c1cnc2ccc(OC)cc2c1Nc1ccc(N2CCN(C)CC2)cc1`, the Ratio is 0.9667. With `Cc1cc(N(C)C)nc(Nc2ccc(NC(=O)Nc3ccccc3)cc2)n1` the figure was 1.017. Regarding `COc1ccccc1C(=O)ON=C(N)Cc1cccc2ccccc12`, the Ratio came to 1.06. With `COc1ccc(C(=O)C(CCC(CNC(C)(C)C)C(=O)c2ccc(OC)cc2)CNC(C)(C)C)cc1` (stereo unspecified) the figure was 0.9453; with `CCOc1cc2c(cc1OCC)C(c1cc(Cl)ccc1O)NCC2` (stereo unspecified), 1.123; with `COc1cc(C(=O)ON=C(N)Cc2cccc3ccccc23)cc(OC)c1OC`, 1.265.

`CN1C=C(c2ccc3ccccc3n2)C(c2c[nH]c3ccccc23)c2ccccc21` (stereo unspecified): the Ratio worked out at 1.295. With `Oc1c(C(Nc2ccccn2)c2cccc(Oc3ccccc3)c2)ccc2cccnc12` (stereo unspecified) the figure was 0.7317.

As for `COc1cc(-c2nc(-c3ccccc3)c(-c3ccccc3)[nH]2)cc(OC)c1O`, the Ratio was 1.031. With `Cc1ccc(Nc2nc(N)c3ccccc3n2)cc1Cl` the figure was 0.9206; with `OC(CNC1CCCCC1)Cn1c2ccc(I)cc2c2cc(I)ccc21` (stereo unspecified), 1.043; with `CCc1ccc(CNCC(O)c2ccccc2)cc1.Cl` (stereo unspecified), 1.061. With `Br.CCn1c2c(c(=N)c3c1CCC3)CCCC2` the figure was 0.8374; with `COc1cc(CNCCc2ccc(Cl)cc2)cc(OC)c1O`, 0.9459.

In the case of `Cc1ccc2c(C)nc(Nc3nc(C)cc(-c4ccccc4)n3)nc2c1`, the Ratio was found to be 0.8649. For the molecule `c1ccc(CNc2nc(Nc3ccccc3)nc3ccccc23)cc1`, the Ratio stood at 1.

In the case of `CCOc1ccc(Nc2ccnc3cc(Cl)ccc23)cc1`, the Ratio came to 0.8831.

Regarding `Oc1ccc(Br)cc1CN1CCN(Cc2ccc(Cl)cc2)CC1`, the Ratio stood at 0.9138.

`CCOc1ccc2nc(C)cc(Nc3ccc(Br)cc3)c2c1`: the Ratio is 1.038.

In the case of `COc1cc2c3cc1Oc1c(OC)c(OC)cc4c1C(Cc1ccc(O)c(c1)Oc1ccc(cc1)CC3N(C)CC2)N(C)CC4.Cl` (stereo unspecified), the Ratio was determined as 0.95.

Take `Br.Cc1ccc(C)c(-c2csc(Nc3ccc(C)c(C)c3)n2)c1`: the Ratio is on record as 1.048. With `COc1ccc2sc(N(Cc3cccnc3)C(=O)c3ccc(C#N)cc3)nc2c1`, the Ratio is listed as 0.8548. With `CC1CC2=C(CC1CNCCCN(C)C)C(C)(C)CCC2` (stereo unspecified) the figure was 0.931. In the case of `CCOC(=O)c1cnc2ccc(OC)cc2c1NCc1ccccc1` it was 0.7154; in that of `CCCn1c(=N)c(C(=O)NC2CCCCC2)cc2c(=O)n3cccc(C)c3nc21`, 0.8; in that of `CCOC(=O)C1=CN(C)C=C(C(=O)OCC)C1c1cc(Br)c(OCC)c(OC)c1`, 1.052. Take `CC(C)(C)c1ccc(C2CC3=Nc4ccccc4N(C(=O)c4ccccc4Cl)C(c4ccc(F)cc4)C3=C(O)C2)cc1` (stereo unspecified): the Ratio came out at 1. With `CN1CCN(c2nc(Nc3ccc(O)cc3)nc3ccccc23)CC1.Cl` the figure was 0.8636. In the case of `CCCCc1c(CCC)c(=N)c2ccccc2n1C.I` it was 0.7821. In the case of `Nc1ccn([C@@H]2O[C@H](CO)[C@@H](O)[C@H]2O)c(=O)n1` [CYTIDINE] it was 0.6667; in that of `O=C(Nc1cccc(C2=NCCN2)c1)Nc1cccc(C2=NCCN2)c1` [IMIDOCARB], 1; in that of `CN(C)c1ccc(C(O)(c2ccc(N(C)C)cc2)c2ccc(N(C)C)cc2)cc1` [METHYLROSANILINE], 1.127.
